Reference: ChEMBL document CHEMBL4483862, “Open-source discovery of chemical leads for next-generation chemoprotective antimalarials” (2018)

Tested on: Plasmodium berghei
Assay: Luciferase/luciferin-expressing antifolate-resistant parasites were used to infect a culture of HepG2 cells that were pre-incubated with compounds. Infected hepatocytes emit light due to the luciferase reaction. Assay results are presented as the percent inhibition of light emission compared to control. […]
Format: functional
Conditions: sporozoite; for IC90: read-out: LUCIFERASE INFECTION ASSAY - IC90
[1] = read-out: LUCIFERASE INFECTION ASSAY - IC50

Row | Compound | IC90 | IC50 [1] | also measured
1 | CCCNC(=O)c1c(NC(=O)c2ccc(Cl)cc2Cl)nc2ccccn12 | 2.94 µM | – | IC50 (FFLUC_HILL_SLOPE 16.3, FFLUC_R_SQUARED 0.135, HEPG2TOX_HILL_SLOPE 2.05, HEPG2TOX_R_SQUARED 0.922, PBLUC_HILL_SLOPE 37.2, PBLUC_R_SQUARED 0.437, read-out: LUCIFERASE INFECTION ASSAY - IC50): 2.77 µM
2 | Cc1cc(C(=O)C(C)OC(=O)c2ccc(S(=O)(=O)NCc3ccco3)cc2)c(C)n1-c1ccc(Cl)cc1 (stereo unspecified) | > 10 µM | – | IC50 (HEPG2TOX_HILL_SLOPE 0.938, HEPG2TOX_R_SQUARED 0.54, PBLUC_HILL_SLOPE 4.63, PBLUC_R_SQUARED 0.33, read-out: LUCIFERASE INFECTION ASSAY - IC50): 7.49 µM
3 | Fc1ccc(CSc2nc(CSc3ccc(Cl)cc3)cc(Sc3ccc(Cl)cc3)n2)cc1 | > 6.35 µM | – | IC50 (FFLUC_HILL_SLOPE 2.29, FFLUC_R_SQUARED 0.432, read-out: LUCIFERASE INFECTION ASSAY - IC50): > 6.35 µM
4 | CSc1sc(-c2nc(C(C)(C)C)cs2)c(C)c1C(C)=O | > 10.1 µM | > 10.1 µM | –
5 | OC(c1ccc(F)c(Cl)c1)c1nnc(Nc2cc(C(F)(F)F)ccc2F)s1 (stereo unspecified) | > 10 µM | – | IC50 (PBLUC_HILL_SLOPE 15.9, PBLUC_R_SQUARED 0.206, read-out: LUCIFERASE INFECTION ASSAY - IC50): 9.29 µM
6 | Nc1ccc(-c2cn3c(-c4cccc(OC(F)(F)F)c4)cnc3cn2)cn1 | 4.23 µM | – | IC50 (PBLUC_HILL_SLOPE 9.99, PBLUC_R_SQUARED 0.381, read-out: LUCIFERASE INFECTION ASSAY - IC50): 3.39 µM
7 | Cc1c(Cl)cccc1-c1ccc(C(=O)NCc2ccco2)o1 | > 10.5 µM | > 10.5 µM | –
8 | CCCCN1C(=O)/C(=C\c2ccc(O)c(OCC)c2)NC1=S | > 10 µM | – | IC50 (PBLUC_HILL_SLOPE 2.35, PBLUC_R_SQUARED 0.305, read-out: LUCIFERASE INFECTION ASSAY - IC50): 6.33 µM
9 | Cc1nn(S(=O)(=O)c2ccc(-c3cc(C(F)(F)F)n(C)n3)s2)c(C)c1Br | > 7.03 µM | > 7.03 µM | –
10 | O=C(c1ccc(=O)[nH]c1)N1CCN(Cc2nc(=O)c3ccccc3[nH]2)CC1 | > 10 µM | > 10 µM | –
11 | CC(C)(C)c1cc(/C=C2\C=c3ccccc3=C2O)cc(C(C)(C)C)c1O | > 9.47 µM | – | IC50 (FFLUC_HILL_SLOPE 9.15, FFLUC_R_SQUARED 0.521, read-out: LUCIFERASE INFECTION ASSAY - IC50): > 9.47 µM
12 | CSc1sc(C(=O)N/N=C/c2ccccc2)c2c1C1(CCC2)SCCS1 | > 7.85 µM | – | IC50 (PBLUC_HILL_SLOPE 1.27, PBLUC_R_SQUARED 0.257, read-out: LUCIFERASE INFECTION ASSAY - IC50): 5.56 µM
13 | O=C(c1cnc(Nc2cccc(C(F)(F)F)c2)[nH]1)c1ccccc1O | 7.03 µM | – | IC50 (PBLUC_HILL_SLOPE 5.05, PBLUC_R_SQUARED 0.685, read-out: LUCIFERASE INFECTION ASSAY - IC50): 4.55 µM
14 | CCCCN(C(=O)c1cccnc1SC)c1nc2ccc(C)cc2s1 | > 10 µM | > 10 µM | –
15 | Cc1ccc(NC(=O)Cc2nc(-c3ccc4c(c3)OCO4)cs2)c(C)c1 | > 10 µM | – | IC50 (PBLUC_HILL_SLOPE 12.9, PBLUC_R_SQUARED 0.436, read-out: LUCIFERASE INFECTION ASSAY - IC50): 8.84 µM
16 | CCCN1CCc2nc(NCc3cccc(Oc4ccccc4)c3)ncc2C1 | > 8.81 µM | – | IC50 (PBLUC_HILL_SLOPE 1.46, PBLUC_R_SQUARED 0.3, read-out: LUCIFERASE INFECTION ASSAY - IC50): 3.92 µM
17 | O=S(=O)(c1ccc2ccccc2c1)N1CCCC1c1nnc2ccccn12 (stereo unspecified) | 5.59 µM | – | IC50 (PBLUC_HILL_SLOPE 2.1, PBLUC_R_SQUARED 0.614, read-out: LUCIFERASE INFECTION ASSAY - IC50): 1.96 µM

Row | Compound | IC90 | IC50 [1] | also measured
18 | Cc1cc(C)c(C2C3=C(Nc4c2c(C)nn4-c2ccccn2)c2ccccc2C3=O)c(C)c1 (stereo unspecified) | > 10 µM | – | IC50 (FFLUC_HILL_SLOPE 11.5, FFLUC_R_SQUARED 0.374, PBLUC_HILL_SLOPE 1.59, PBLUC_R_SQUARED 0.668, read-out: LUCIFERASE INFECTION ASSAY - IC50): 5.07 µM
19 | CC(C)c1ccccc1NC(=O)Nc1nc(C(N)Cc2ccc(C(F)(F)F)cc2)cs1 (stereo unspecified) | > 7.36 µM | – | IC50 (PBLUC_HILL_SLOPE 1.06, PBLUC_R_SQUARED 0.663, read-out: LUCIFERASE INFECTION ASSAY - IC50): 1.89 µM
20 | CC(C)(C)c1ccc(C(=O)Nc2cc(Cl)cc(Cl)c2)cc1 | > 10.2 µM | > 10.2 µM | –
21 | C=CCn1c(O)nnc1Sc1ncc([N+](=O)[O-])s1 | > 11.6 µM | > 11.6 µM | –
22 | Cc1ccc(C(=O)NCc2nsc(=N/C(=N\c3ccccc3)c3ccccc3)n2Cc2ccccc2)cc1 | > 10 µM | – | IC50 (FFLUC_HILL_SLOPE 3.57, FFLUC_R_SQUARED 0.485, HEPG2TOX_HILL_SLOPE 6.57, HEPG2TOX_R_SQUARED 0.579, PBLUC_HILL_SLOPE 15.6, PBLUC_R_SQUARED 0.234, read-out: LUCIFERASE INFECTION ASSAY - IC50): 8.74 µM
23 | COC(=O)c1cnc(Sc2n[nH]c(=O)n2-c2cccc(C(F)(F)F)c2)c([N+](=O)[O-])c1 | > 7.48 µM | > 7.48 µM | –
24 | C=CCSc1nnc(NC(=O)C2Cc3ccccc3CN2S(=O)(=O)c2ccccc2F)s1 (stereo unspecified) | > 10 µM | – | IC50 (FFLUC_HILL_SLOPE 1.45, FFLUC_R_SQUARED 0.33, PBLUC_HILL_SLOPE 5.35, PBLUC_R_SQUARED 0.362, read-out: LUCIFERASE INFECTION ASSAY - IC50): 7.22 µM
25 | Cc1ccc(O)c(C(=O)c2cn/c(=N\c3ccccc3)n(-c3ccccc3)c2)c1 | 4.08 µM | – | IC50 (PBLUC_HILL_SLOPE 10.6, PBLUC_R_SQUARED 0.86, read-out: LUCIFERASE INFECTION ASSAY - IC50): 3.32 µM
26 | Cc1ccc2nc(NC(=O)C3CCCC3)c(C(=O)NC3CCCC3)n2c1 | > 9.31 µM | > 9.31 µM | –
27 | Cc1cccc(NS(=O)(=O)c2cc(C(=O)OCC(=O)Nc3ccc(F)c(F)c3F)ccc2C)c1 | > 10 µM | > 10 µM | –
28 | Cc1ccc(Cn2nc(C)c(C(=O)Nc3nc4c(s3)CCCC4)c2Cl)cc1 | > 10 µM | – | IC50 (PBLUC_HILL_SLOPE 15.7, PBLUC_R_SQUARED 0.159, read-out: LUCIFERASE INFECTION ASSAY - IC50): 9.13 µM
29 | C=CCc1c(C)[nH]c2c(-c3ccccc3)cnn2c1=O | 12.1 µM | – | IC50 (PBLUC_HILL_SLOPE 3.12, PBLUC_R_SQUARED 0.621, read-out: LUCIFERASE INFECTION ASSAY - IC50): 6 µM
30 | O=c1c2cc(Br)cc(Br)c2nc(-c2ccccc2)n1-c1cc(C(F)(F)F)cc(C(F)(F)F)c1 | > 5.57 µM | > 5.57 µM | –
31 | COc1ccc(Br)cc1/C=C/C(=O)c1ccc(OCC#N)cc1 | > 10 µM | – | IC50 (PBLUC_HILL_SLOPE 7.84, PBLUC_R_SQUARED 0.11, read-out: LUCIFERASE INFECTION ASSAY - IC50): 9.52 µM
32 | Cc1ccc(O)c(-c2cc(-c3ccccc3)c3ccccc3n2)c1 | > 10 µM | > 10 µM | –
33 | Cc1nn(CC(=O)Nc2cccc(Cl)c2)c(C)c1Oc1ccccc1 | > 9.27 µM | 5.38 µM | –
